Experimental findings from US5886046A, “Dicarbonyl-containing compounds” (priority 1996, dated 1999) are described below.

Broadly, the IC95 is the concentration needed for an effect of 95%. The term IC50 denotes the midpoint of a concentration-inhibition curve.

One assay has as its system HIV-1. The assay is described as follows: CIC95 (cell culture assay of Thompson, not further described). In kind it is cell-based. An excerpt: (§1) The biological activity compound (4) was compared with the known enzyme inhibitor (1) N-(2(R)-Hydroxy-1(S)-indonyl)-5(S)-[tert-butyloxycarbonyl)amino]-4(S)-hydroxy-6-(4-hydroxyphenyl)-2-(R) -[(4-hydroxyphenyl)methyl]hexanamide. See, e.g., Thompson, W. J. et al., J. Med. Chem. 1992, 35, 1685) according to methods recited in the Thompson, supra. and Heimbach, J. C. et al., Biochem. Biophys. Res. Commun. 1989, 164, 955-960.

The target in a further assay is HIV-1 protease (Human immunodeficiency virus type 1 group M subtype B, UniProt P12497). The assay is described as follows: biochemical.
Excerpt: as §1

The structures appear in SMILES notation.

Consider `CC(=O)C(=O)COc1ccc(C[C@H](C[C@H](O)[C@H](Cc2ccccc2)NC(=O)OC(C)(C)C)C(=O)N[C@H]2c3ccccc3C[C@H]2O)cc1` [Compound 4], for which the IC95 in the assay on HIV-1 (Human immunodeficiency virus 1) was less than 6000 pM. Moreover, the CIC95/IC50 with HIV-1 (ratio of CIC95 to IC50) is recorded as less than 80. For the same molecule, 75 pM corresponded to half-maximal inhibition against HIV-1 protease (IC50).
